This passage reports IC50 results from paper PMC6479601, “Salicylate and Procyanidin-Rich Stem Extracts of Gaultheria procumbens L. Inhibit Pro-Inflammatory Enzymes and Suppress Pro-Inflammatory and Pro-Oxidant Functions of Human Neutrophils Ex Vivo” (International Journal of Molecular Sciences, 2019).

In assay [1] the target is T1, LOX (lipoxygenase).
T1 construct: gene LOX1.1
Kind of assay: lipoxygenase inhibition assay (Matczak et al.). Format: biochemical. Particulars: eight-point curve; read-out: LOX / IC50 (mg GAE/mL; mM) ^b. An excerpt:
lipoxygenase inhibition assay (Matczak et al.) on LOX (lipoxygenase)

Assay [2] addresses T2, HYAL (hyaluronidase).
T2 construct: gene SPAM1
Put plainly: hyaluronidase inhibition assay (Matczak et al.). Particulars: eight-point curve; read-out: HYAL / IC50 (μg GAE/mL; μM) ^b. The assay is classed as biochemical. An excerpt:
hyaluronidase inhibition assay (Matczak et al.) on HYAL (hyaluronidase)

Regarding `C[C@@H]1C[C@H]2[C@@H]3CCC4=CC(=O)C=C[C@]4(C)[C@@]3(F)[C@@H](O)C[C@]2(C)[C@@]1(O)C(=O)CO` [DEX], the IC50 in assay [1] amounted to 0.3 ± 0.02 mM; in assay [2], 36.1 ± 2.68 µM.

For the molecule `COc1ccc2c(c1)c(CC(=O)O)c(C)n2C(=O)c1ccc(Cl)cc1` [IND], the IC50 in assay [1] was 0.26 ± 0.01 mM; in assay [2] it was 35.7 ± 5.34 µM.

As for `Oc1cc(O)c2c(c1)O[C@H](c1ccc(O)c(O)c1)[C@H](O)[C@H]2c1c(O)cc(O)c2c1O[C@H](c1ccc(O)c(O)c1)[C@H](O)C2` [PB2], the IC50 in assay [1] is 0.29 ± 0.03 mM; in assay [2] it was 37.4 ± 1.78 µM.

On to `COC(=O)c1ccccc1O[C@@H]1O[C@H](CO[C@@H]2OC[C@@H](O)[C@H](O)[C@H]2O)[C@@H](O)[C@H](O)[C@H]1O` [compound 18, methyl salicylate 2-O-(6′-O-β-D-xylopyranosyl)-β-D-glucopyranoside], for which the IC50 in assay [1] amounted to 1.26 ± 0.04 mM; in assay [2] it was 64 ± 2.87 µM.

In the case of `O=c1c(O)c(-c2ccc(O)c(O)c2)oc2cc(O)cc(O)c12` [compound 39, QU], the results for the IC50 in assay [1] and in assay [2] were 0.3 ± 0.02 mM and 102 ± 6.09 µM, respectively.
